Laboratory results as given in publication PMC9746828, “Small-molecule PROTAC mediates targeted protein degradation to treat STAT3-dependent epithelial cancer” (JCI Insight, 2022).

Biological target: STAT3 (Homo sapiens, UniProt P40763)
Assay: microscale thermophoresis (MST), recombinant human STAT3
Type: binding

Chain of STAT3 (P40763 2-770): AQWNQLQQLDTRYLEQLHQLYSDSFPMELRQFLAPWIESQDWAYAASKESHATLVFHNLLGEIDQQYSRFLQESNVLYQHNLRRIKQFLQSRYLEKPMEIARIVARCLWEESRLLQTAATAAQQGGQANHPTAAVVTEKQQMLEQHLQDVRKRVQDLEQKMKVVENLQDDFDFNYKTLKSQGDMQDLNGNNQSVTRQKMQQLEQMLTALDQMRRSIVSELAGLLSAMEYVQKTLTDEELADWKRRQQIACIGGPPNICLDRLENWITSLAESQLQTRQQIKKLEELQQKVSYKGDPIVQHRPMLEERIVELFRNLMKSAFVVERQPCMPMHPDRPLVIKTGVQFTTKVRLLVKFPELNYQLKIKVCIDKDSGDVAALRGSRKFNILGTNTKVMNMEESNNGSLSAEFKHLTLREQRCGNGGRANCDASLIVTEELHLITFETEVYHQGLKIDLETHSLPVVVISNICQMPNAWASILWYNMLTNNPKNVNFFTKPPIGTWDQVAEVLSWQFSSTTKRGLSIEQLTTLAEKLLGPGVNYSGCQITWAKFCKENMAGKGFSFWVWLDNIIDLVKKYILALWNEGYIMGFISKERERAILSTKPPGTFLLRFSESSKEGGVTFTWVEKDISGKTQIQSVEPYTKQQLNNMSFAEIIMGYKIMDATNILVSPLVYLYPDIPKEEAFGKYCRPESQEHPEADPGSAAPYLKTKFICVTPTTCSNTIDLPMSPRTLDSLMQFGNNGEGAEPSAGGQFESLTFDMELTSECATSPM

Question: For `CC(=O)O[C@@H]1C[C@H](O)[C@@]23CO[C@@H](O)[C@]1(C)[C@@H]2C[C@@H](O)[C@]1(C)[C@@H]3C(=O)[C@H](OC(C)=O)[C@@]2(C)[C@H](c3ccoc3)C[C@H]3O[C@]321` [TSN, toosendanin], which Kd is on record?
Answer: 296 nM
